Like-named read-outs stand apart in the source and are kept apart here.
How the values were obtained:
[1] = target: T1, full-length human PDE4D5 isozyme (Homo sapiens, UniProt Q08499); assay: PDE4 IC50 determination by Scintillation Proximity Assay, PDE4D5; format: biochemical
T1 construct: The full-length human PDE4D5 isozyme; His6 (N); TEV cleavage site (N); made in house; host or cells: baculovirus infected insect cells (unpurified lysate)
Summary of the method: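 Unpurified His6-tagged full-length human PDE4D5 from baculovirus-infected insect cell lysate, 0.083 μl glycerol stock/ml, hydrolysed [3H]cAMP in Tris pH 7.5/MgCl/EGTA buffer, 30 min at 30°. ZnSO4/SPA beads stop; [3H]AMP counted. Controls: DMSO and roflumilast; 11-point duplicate curves, nonlinear-regression IC50.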

[2] = test system: TNF alpha production in LPS-stimulated human blood (Buffy coat); assay: TNF alpha production by stimulation with LPS in whole blood cultures; format: cell-based
Method: Compounds were assayed to generate IC50 numbers as described in Example 54, using the following assay protocol (see Tables 3B and 4B for compounds and results).
Protocol • 1) Obtained 20 mM DMSO aliquots of desired concentrations of compounds (see Tables 3B and 4B for compounds tested and results). Placed 2 μl/well compound in DMSO in the top row of the dilution plate. Added 98 μl of RPMI 1640 media w/2.5% heat inactivated FBS.
2) Made the same media with 2% DMSO in it. Added 60 μl/well to well to make compound titration. Took 30 μl of top row and did a 1:3 dilution down the plate. In column 11 added 4 wells of 50 μM roflumilast and piclamilast. In column 12 added 2% DMSO media.
3) Transfered 20 μl/well into assay plates in duplicate.
4) Obtained human Buffy coat.
5) Diluted blood with 7 volumes of RPMI 1640 media with 1% P/S and 2.5% heat inactivated FBS (a 1:8 dilution)
6) Added160 μl/well of diluted blood to the assay plates.
7) Incubated for 1 hour at 37 degrees 5% CO2
8) Diluted LPS (which was already diluted to 1 mg/ml in PBS, 20 μl aliquots frozen −20 C.) to 10× desired final concentration to make a […] dilution (final concentration should be 100 ng/ml).
9) After 1 hour incubation added 20 μl/well of LPS to plates. A non-LPS treated background was also prepared. Samples were put on the shaker for a one minute 900 rpm.
10) Incubated for 4 hours in incubator.
11) After incubation, put on the shaker for a one minute 900 rpm and spun plate at 100 g for 10 minutes, Decel 5.
12) Carefully pipetted the top 75 μl supernatant into a new plate. Samples were frozen as needed.
Biosource hu-TNF ALPHA ELISA
• REAGENTS USED • DPBS 10×: VWR45000-428 (dilute 1:10 with Millipore Water) • TWEEN 20: FISHER BP337-500 • CAPTURE AND DETECTION ANTIBODIES: R&D DY510E • STREP-HRP: Biosource part SNN4004X • COLOR REAGENTS: R&D DY994 • STOP SOLUTION: from chemistry, or R&D DY999 • 1) Thawed samples to RT as needed. • 2) Added 50 μl Incubation buffer/well. • 3) Added 50 μl blood samples +50 μl Diluent buffer • 4) Incubated 2 hours at room temp. • 5) Washed the plate 4× with 300 μl/well wash buffer with microfill. Wash buffer was DPBS with 0.05% Tween pH 7.2-7.4 • 6) Added 100 μl biotinylated anti-TNFalpha • 7) Incubateed 1 hours at room temp. • 8) Washed the plate 4× with 300 μl/well wash buffer with microfill. Wash buffer was DPBS with 0.05% Tween pH 7.2-7.4 • 9) Added^100 μl Streptavidin-HRP working solution • 10) Incubated for 30 minutes at room temp. • 11) Washed the plate 4× with 300 μl/well wash buffer with microfill. Wash buffer was DPBS with 0.05% Tween pH 7.2-7.4 • 12) Added 100 μl Chromagen • 13) Incubated in the dark for 30 minutes until the blue color developed satisfactorily. • 14) Added 100 μl/well stop solution (2 N H2SO4). • 15) Read plate on WallacVictor at 450 nm for 0.1 sec/well

[3] = target: T2, full-length human PDE4B2 isozyme (Homo sapiens, UniProt Q07343); assay: PDE4 IC50 determination by Scintillation Proximity Assay, PDE4B2; format: biochemical
T2 construct: The full-length human PDE4B2 isozyme; His6 (N); TEV cleavage site (N); made in house; host or cells: baculovirus infected insect cells (unpurified lysate)
T2 sequence (Q07343 1-564 isoform Q07343-2): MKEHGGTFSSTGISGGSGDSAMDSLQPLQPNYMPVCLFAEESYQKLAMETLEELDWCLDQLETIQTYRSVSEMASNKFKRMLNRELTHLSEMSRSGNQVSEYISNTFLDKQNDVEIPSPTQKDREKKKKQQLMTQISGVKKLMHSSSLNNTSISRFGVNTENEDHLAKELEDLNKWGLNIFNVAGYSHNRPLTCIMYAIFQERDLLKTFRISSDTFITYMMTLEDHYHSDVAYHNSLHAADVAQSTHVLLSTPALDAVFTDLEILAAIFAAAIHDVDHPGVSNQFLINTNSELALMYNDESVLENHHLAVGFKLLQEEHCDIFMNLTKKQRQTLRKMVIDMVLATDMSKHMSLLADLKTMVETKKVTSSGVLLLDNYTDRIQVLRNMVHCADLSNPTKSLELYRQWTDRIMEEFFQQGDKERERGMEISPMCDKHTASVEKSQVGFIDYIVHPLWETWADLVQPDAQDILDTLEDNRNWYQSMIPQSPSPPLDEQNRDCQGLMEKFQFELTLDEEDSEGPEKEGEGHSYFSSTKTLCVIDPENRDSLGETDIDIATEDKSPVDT
Summary of the method: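 Unpurified His6-TEV-tagged full-length human PDE4B2 from baculovirus-infected insect cell lysate (2.5 μl of 50% glycerol stock/ml) hydrolysed [3H]cAMP in 50 mM Tris pH 7.5, 8.3 mM MgCl, 1.7 mM EGTA, 0.01% BSA for 30 min at 30°. Stopped with SPA beads in 18 mM ZnSO4; [3H]AMP scintillation counted, IC50 by non-linear regression.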

[4] = target: T3, PDE4B: The catalytic domain of human PDE4B from S152-S528 (Homo sapiens, UniProt Q07343); assay: PDE4 IC50 determination by Scintillation Proximity Assay, PDE4B; format: biochemical
T3 construct: His6 (N); thrombin cleavage site (N); made in house; host or cells: E. coli
T3 sequence (Q07343 with tags, fused parts or gaps): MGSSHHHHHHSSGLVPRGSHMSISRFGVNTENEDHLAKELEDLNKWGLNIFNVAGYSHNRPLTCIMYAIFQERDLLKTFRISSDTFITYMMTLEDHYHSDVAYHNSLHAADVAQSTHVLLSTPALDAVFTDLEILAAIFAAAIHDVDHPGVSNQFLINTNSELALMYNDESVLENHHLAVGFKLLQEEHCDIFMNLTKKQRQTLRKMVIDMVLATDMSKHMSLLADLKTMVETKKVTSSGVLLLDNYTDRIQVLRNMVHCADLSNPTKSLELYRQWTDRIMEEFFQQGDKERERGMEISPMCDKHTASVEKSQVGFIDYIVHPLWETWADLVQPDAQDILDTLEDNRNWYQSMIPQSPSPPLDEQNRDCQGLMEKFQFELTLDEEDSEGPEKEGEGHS
Summary of the method: (§1)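 Hydrolysis of [^3H]cAMP measured by SPA with yttrium silicate beads, which bind the [^3H]AMP product strongly and cAMP weakly. Enzyme at 80 ng/ml for PDE4B, 4 ng/ml for PDE4D; 30 min at 30°.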

PDE4D = target: T4, PDE4D (Homo sapiens, UniProt Q08499); assay: PDE4 IC50 determination by Scintillation Proximity Assay, PDE4D; format: biochemical; details: Table 1B, Formula I compounds; read-out: IC50 PDE4D
T4 construct: PDE4D: The catalytic domain of human PDE4B from S3 16-V692; His6 (N); thrombin cleavage site (N); made in house; host or cells: E. coli
T4 sequence (Q08499 380-756): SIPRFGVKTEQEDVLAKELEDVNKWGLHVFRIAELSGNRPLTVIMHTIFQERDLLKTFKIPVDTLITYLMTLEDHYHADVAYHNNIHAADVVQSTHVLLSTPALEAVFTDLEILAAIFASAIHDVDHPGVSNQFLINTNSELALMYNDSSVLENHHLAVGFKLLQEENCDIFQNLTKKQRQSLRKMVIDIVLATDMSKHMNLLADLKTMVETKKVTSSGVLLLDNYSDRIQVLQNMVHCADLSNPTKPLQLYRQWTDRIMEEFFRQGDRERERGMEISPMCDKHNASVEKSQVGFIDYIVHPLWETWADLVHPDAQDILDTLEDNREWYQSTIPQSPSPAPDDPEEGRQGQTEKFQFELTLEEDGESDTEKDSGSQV
Summary of the method: as §1

[5] = Table 1B, Formula I compounds, read-out: IC50 PDE4D5
[6] = Homo sapiens, Table 1B, Formula I compounds, read-out: IC50 h TNFα
[7] = Table 1B, Formula I compounds, read-out: IC50 PDE4B2
[8] = Table 1B, Formula I compounds, read-out: IC50 PDE4B

T1 sequence (Q08499 1-745 isoform Q08499-6): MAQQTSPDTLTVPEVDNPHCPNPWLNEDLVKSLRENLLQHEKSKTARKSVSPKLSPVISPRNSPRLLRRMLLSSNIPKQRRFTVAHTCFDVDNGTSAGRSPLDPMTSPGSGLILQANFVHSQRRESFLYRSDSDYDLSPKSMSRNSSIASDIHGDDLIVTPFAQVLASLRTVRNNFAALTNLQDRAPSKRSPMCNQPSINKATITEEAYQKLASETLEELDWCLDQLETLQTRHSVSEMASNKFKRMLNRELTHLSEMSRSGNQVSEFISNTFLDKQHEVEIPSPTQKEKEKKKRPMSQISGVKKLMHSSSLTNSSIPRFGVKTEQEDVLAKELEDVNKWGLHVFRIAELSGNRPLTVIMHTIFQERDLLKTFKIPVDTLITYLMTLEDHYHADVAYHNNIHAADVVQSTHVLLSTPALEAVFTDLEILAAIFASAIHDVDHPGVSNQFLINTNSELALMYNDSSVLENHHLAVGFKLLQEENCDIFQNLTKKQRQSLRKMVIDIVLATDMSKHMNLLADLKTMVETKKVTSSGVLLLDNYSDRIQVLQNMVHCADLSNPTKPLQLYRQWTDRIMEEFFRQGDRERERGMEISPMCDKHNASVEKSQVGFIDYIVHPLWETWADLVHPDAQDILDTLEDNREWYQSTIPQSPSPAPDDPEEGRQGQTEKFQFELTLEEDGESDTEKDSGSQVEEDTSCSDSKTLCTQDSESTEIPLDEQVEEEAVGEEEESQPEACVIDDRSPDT

IC50 [1, 5] [µM]	IC50 [2, 6] [µM]	IC50 [3, 7] [µM]	IC50 [4, 8] [µM]	IC50 (PDE4D) [µM]	IC50 ([1]; first part of Table 2B (2-1 to 2-22), read-out: IC 50 vs. indicated assay PDE4D5) [µM]	IC50 ([2]; human whole blood, LPS 100 ng/ml, read-out: IC 50 vs. indicated assay h TNFα) [µM]	IC50 ([3]; first part of Table 2B (2-1 to 2-22), read-out: IC 50 vs. indicated assay PDE4B2) [µM]	IC50 ([4]; first part of Table 2B (2-1 to 2-22), read-out: IC 50 vs. indicated assay PDE4B) [µM]	Compound
< 10	< 10	< 10	< 10	< 10					CCC(C)Nc1sc(C(=O)c2cc(-c3ccccc3)no2)c(N)c1C(N)=O (centres unmarked) [Compound 1-244, 4-Amino-2-sec-butylamino-5-(3-phenyl-isoxazole-5-carbonyl)-thiophene-3-carboxylic acid amide]
< 10	> 10	< 10	< 10	< 10					N#Cc1c(NC2CCCC2)sc(C(=O)c2cc(-c3ccc(N)cc3)no2)c1N [Compound 1-250, 4-Amino-5-[3-(4-amino-phenyl)-isoxazole-5-carbonyl]-2-cyclopentylamino-thiophene-3-carbonitrile]
< 10	> 10	< 10	< 10	< 10					COc1ccc(OC)c(C(=O)c2sc(NC3CCCC3)c(C#N)c2N)c1 [Compound 1-40]
< 10	< 10	< 10	< 10	< 10					Cc1nc(-c2cnccn2)sc1C(=O)c1sc(NC2CCCC2)c(C#N)c1N [Compound 1-219, 4-Amino-2-cyclopentylamino-5-(4-methyl-2-pyrazin-2-yl-thiazole-5-carbonyl)-thiophene-3-carbonitrile]
< 10	> 10	< 10	< 10	< 10					Cc1nc(-c2cnccn2)sc1C(=O)c1sc(NC2CCCC2)c(C(N)=O)c1N [Compound 1-252, 4-Amino-2-cyclopentylamino-5-(4-methyl-2-pyrazin-2-yl-thiazole-5-carbonyl)-thiophene-3-carboxylic acid amide]
> 10	> 10	< 10	< 10	> 10					CCC(C)Nc1sc(C(=O)c2cc(-c3ccc(Cl)c(Cl)c3)no2)c(N)c1C#N (centres unmarked) [Compound 1-247, 4-Amino-2-sec-butylamino-5-[3-(3,4-dichloro-phenyl)-isoxazole-5-carbonyl]-thiophene-3-carbonitrile]
> 10	> 10	< 10	< 10	> 10					CC(C)C(C)Nc1sc(C(=O)c2cc(-c3ccccc3)no2)c(N)c1C#N (centres unmarked) [Compound 1-223, 4-Amino-2-(1,2-dimethyl-propylamino)-5-(3-phenyl-isoxazoie-5-carbonyl)-thiophene-3-carbonitrile]
< 10	> 10	< 10	< 10	< 10					NC(=O)c1c(NC2CCCC2)sc(C(=O)c2cc(-c3ccc(N)cc3)no2)c1N [Compound 1-253, 4-Amino-5-[3-(4-amino-phenyl)-isoxazole-5-carbonyl]-2-cyclopentylamino-thiophene-3-carboxylic acid amide]
> 10	> 10	< 10	< 10	> 10					CC(C)Nc1sc(C(=O)c2cc(-c3ccc(Cl)c(Cl)c3)no2)c(N)c1C#N [Compound 1-225]
< 10	< 10	< 10	< 10	< 10					N#Cc1c(Nc2ccccc2)sc(C(=O)c2ccc(Cl)cc2)c1N [Compound 1-20, 4-Amino-5-(4-chloro-benzoyl)-2-phenylamino-thiophene-3-carbonitrile]
< 10	< 10	< 10	< 10	< 10					COc1ccc(Nc2sc(C(=O)c3ccccc3Cl)c(N)c2C#N)cc1 [Compound 1-110, 4-Amino-5-(2-chloro-benzoyl)-2-(4-methoxy-phenylamino)-thiophene-3-carbonitrile]
> 10	> 10	< 10	< 10	< 10					CCC(C)Nc1sc(C(=O)c2cc(-c3ccccc3)no2)c(N)c1C#N (centres unmarked) [Compound 1-222, 4-Amino-2-sec-butylamino-5-(3-phenyl-isoxazole-5-carbonyl)-thiophene-3-carbonitrile]
< 10	> 10	< 10	< 10	< 10					CC(C)CNc1sc(C(=O)c2cc(-c3ccccc3)no2)c(N)c1C#N [Compound 1-209, 4-Amino-2-isobutylamino-5-(3-phenyl-isoxazole-5-carbonyl)-thiophene-3-carbonitrile]
> 10	> 10	< 10	< 10	> 10					N#Cc1c(NC2CCCC2)sc(C(=O)c2cc(-c3ccc([N+](=O)[O-])cc3)no2)c1N [Compound 1-220, 4-Amino-2-cyclopentylamino-5-[3-(4-nitro-phenyl)-isoxazole-5-carbonyl]-thiophene-3-carbonitrile]
< 10	< 10	< 10	< 10	< 10					CC(C)CNc1sc(C(=O)c2cc(-c3ccc(Cl)c(Cl)c3)no2)c(N)c1C(N)=O [Compound 1-245, 4-Amino-5-[3-(3,4-dichloro-phenyl)-isoxazole-5-carbonyl]-2-isobutylamino-thiophene-3-carboxylic acid amide]
					< 10	< 10	< 10	< 10	Nc1nc(NC2CCCC2)sc1C(=O)c1cc(-c2ccccc2)cs1 [Compound 2-19, (4-Amino-2-cyclopentylamino-thiazol-5-yl)-(4-phenyl-thiophen-2yl)-methanone]
< 10	< 10	< 10	< 10						COc1ccccc1Nc1sc(C(=O)c2cc(-c3ccccc3)no2)c(N)c1C#N [Compound 1-242]

— patent publication US7585859B2, “PDE4B inhibitors and uses therefor” (Plexxikon, Inc., priority 2004, dated 2009)
